Consider 5 compounds from publication PMC8032764 (Scientific Reports, 2021).

For data set [1], the target named is T1, human α6β3γ2 (Homo sapiens, UniProt P18507+Q16445).
T1 construct: expressed in transfected cells; host or cells: HEK293-EBNA, transient
Particulars: previously determined; read-out: Kd of the radiolabel; cited from earlier work.

Data set [2] has as its target GABAA α5β3γ2. The following applies: Table S4a, read-out: Ki α5β3γ2, cited from earlier work.
Data set [3] deals with GABAA α2β3γ2. Particulars: Table S4a, cited from earlier work.
For data set [4], the system named is healthy elderly humans. Particulars: cited from earlier work.
Data set [5] addresses GABAA α1β3γ2. Particulars: Table S4a, cited from earlier work.
The subject of data set [6] is preclinical species. On the set-up: method as in PMID 15918586. The following applies: cited from earlier work.
Data set [7] deals with GABAA α3β3γ2. Particulars: Table S4a, cited from earlier work.
For data set [8], the system named is humans. Particulars: experimental medicine study; cited from earlier work.
Data set [9] deals with non-impaired rodents. Kind of data set: Cognitive performance in non-impaired rodents. The following applies: data not shown. Format: in vivo.
In data set [10] the test system is CYP1A2. Particulars: rats, reduced plasma exposure on chronic dosing; cited from earlier work.
For data set [11], the system named is binding sites of [3H]-Ro 15-4513 in the hippocampus. Particulars: similar experiments; cited from earlier work.
Data set [12] concerns healthy volunteers. Nature of the data set: Resting state EEG in healthy volunteers. The following applies: midazolam single dose, 1 h post dose. It is filed as in vivo, human. The method, then:
Full details of the protocol can be found in the Supplementary Information. The study was registered on October 2, 2014 with clinicaltrials.gov identifier NCT02254759. The DDI study was approved by the National Research Ethics Service (NRES) Committee South Central—Berkshire B. EEG was included in the study as one of the pharmacodynamic outcome measures.
Resting state EEG (4 min eyes open, 4 min eyes closed) was recorded at 4 days 1 h and 4 h after dosing at morning (similar time at baseline day). […] The EEG recording from day 16 is not reported here. The EEG technician kept the subject alert (vigilance controlled resting state condition). As soon as drowsiness patterns appeared (slow rolling eye movements, attenuated alpha rhythm replaced by low amplitude), the subject was aroused by auditory stimuli (tapping or clicking).
EEG was recorded from 19 Ag/AgCl electrodes arranged according to the 10/20 system and mounted in an elastic cap. EOG was recorded simultaneously from five electrodes. […]
Power spectral estimates were derived for logarithmically scaled frequencies with a logarithmic frequency smoothing using Morlet Wavelets with a spectral smoothing of 1/2 octave (f/σf = 5.83). […] For analyses of “relative power” the power was normalized to 1 across the frequency range analyzed. […]

Data set [13] has as its target human GABAA α5β3γ2 (Homo sapiens, UniProt P18507+P31644). Nature of the data set: Two-electrode voltage clamp in Xenopus oocytes, current induced by EC10 of GABA. The following applies: 1000 nM, n = 12, not shown. More on the design: expressed in transfected cells; host or cells: Xenopus laevis oocytes, cRNA injection. It is filed as cell-based. The method, then: Freshly prepared oocytes of maturation stage VI were bought from Ecocyte Bioscience (Castrop-Rauxel, Germany) and, after overnight delivery, plated into 96-well plates (Greiner no. 651101) for microinjection on a ROBOOCYTE R16 system (Multichannel Systems MCS GmbH, Reutlingen, Germany). Each oocyte was injected with roughly 50 nL of RNA solution. The solution for expressing receptors composed of the human α1, β2 and γ2 subunits contained 3 pg/nL of α1 and β2 RNA and 15 pg/nL of γ2 RNA. The solution for expressing human α2β3γ2 receptors contained 2.5 pg/nL of α2 and β3 RNA, 5 pg/nL of γ2 RNA and 10 pg/nL of GABARAP RNA. The solution for expressing human α3β3γ2 receptors contained 1.3 pg/nL of α3 and β3 RNA and 6.5 pg/nL of γ2 RNA. The solution for expressing human α5β3γ2 receptors contained 1.3 pg/nL of α5 and β3 RNA and 13 pg/nL of γ2 RNA. […] After the microinjection the oocytes were kept at 20 °C temperature until the electrophysiological experiment. Experiments were done 3 to 5 days later on the ROBOOCYTE instrument which employs the two-microelectrode voltage-clamp technique for membrane voltage control and current measurement. […] During current recording and compound testing the cell membrane was constantly clamped to − 80 mV. Current signals were recorded and stored on a PC-type computer using the ROBOOCYTE software.
During the microinjection and up to the electrophysiological experiment the oocytes were kept in a solution containing 88 mM NaCl, 1 mM KCl, 2.5 mM NaHCO3, 10 mM HEPES (AppliChem GmbH, Darmstadt, Germany), 0.82 MgSO4, 0.33 mM Ca(NO3)2, 0.33 mM CaCl2, 100 U/mL penicillin (GIBCO, ThermoFisher Scientific) and 100 µg/mL streptomycine (GIBCO, ThermoFisher Scientific). The pH was adjusted to 7.5. During the experiment the voltage-clamped oocyte was constantly superfused by a solution containing 90 mM NaCl, 1 mM KCl, 5 mM HEPES (AppliChem), 1 mM MgCl2 and 1 mM CaCl2 (pH 7.4). GABA and test compounds were added to this solution. GABA concentrations were chosen according to previously determined concentration–response relations for the different human GABAA receptor subunit combinations. Concentrations evoking approximately 10% of a maximal response were selected, i.e., 8 µM for α1β2γ2, 6 µM for α2β3γ2, 10 µM for α3β3γ2 and 5 µM for α5β3γ2. Solutions containing GABA or test compounds were freshly prepared at least every second day. […] Compounds were further diluted in DMSO and finally in extracellular saline to reach a DMSO concentration of 0.1%. The same amount of DMSO was added to the control solutions without test compounds.
During the experiment the solutions were fed into the well containing the voltage-clamped oocyte via Teflon tubings connected by electromagnetic valves which allowed rapid switching between different solutions (controlled by the ROBOCYTE software). Approximately 1–2 min after impaling an oocyte and switching to voltage-clamp mode GABA was applied for 90 s to record a control response. Thereafter the oocyte was washed with saline for 160 s followed by another 90 s GABA application. Then 30 s after the onset of the second GABA application the system switched to a solution containing GABA plus the test compound. Each oocyte was used for testing one concentration of a single test compound (for α5β3γ2: 1 nM: n = 8, 10 nM: n = 8, 100 nM: n = 7, 1000 nM: n = 7).
In this case each GABA application lasted 110 s and the rest period between the two GABA applications was 190 s long.
On each 96-well plate 3–6 oocytes were used for testing a known NAM at the BZD binding site, β-CCM (FG7106), as a positive control. […] Maximally effective concentrations of β-CCM were used for each subunit combination, i.e., 100 nM β-CCM for α1β2γ2, 300 nM for α2β3γ2 or α3β3γ2 and 1 µM for α5β3γ2.

Like-named read-outs stand apart in the source and are kept apart here.

T1 sequence (Q16445 20-453): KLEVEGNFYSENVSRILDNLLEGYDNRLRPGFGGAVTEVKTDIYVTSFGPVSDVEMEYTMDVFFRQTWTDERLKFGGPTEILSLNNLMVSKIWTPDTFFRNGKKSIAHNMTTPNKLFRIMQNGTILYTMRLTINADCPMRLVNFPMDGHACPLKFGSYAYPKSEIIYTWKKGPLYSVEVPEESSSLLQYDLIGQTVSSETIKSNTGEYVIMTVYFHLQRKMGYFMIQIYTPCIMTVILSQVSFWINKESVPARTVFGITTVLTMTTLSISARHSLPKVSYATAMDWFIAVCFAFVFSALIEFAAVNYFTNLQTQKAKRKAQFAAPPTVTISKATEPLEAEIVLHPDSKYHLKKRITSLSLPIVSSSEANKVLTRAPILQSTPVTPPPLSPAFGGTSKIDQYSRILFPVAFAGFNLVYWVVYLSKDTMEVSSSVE
T1 sequence (P28472 26-473 partner): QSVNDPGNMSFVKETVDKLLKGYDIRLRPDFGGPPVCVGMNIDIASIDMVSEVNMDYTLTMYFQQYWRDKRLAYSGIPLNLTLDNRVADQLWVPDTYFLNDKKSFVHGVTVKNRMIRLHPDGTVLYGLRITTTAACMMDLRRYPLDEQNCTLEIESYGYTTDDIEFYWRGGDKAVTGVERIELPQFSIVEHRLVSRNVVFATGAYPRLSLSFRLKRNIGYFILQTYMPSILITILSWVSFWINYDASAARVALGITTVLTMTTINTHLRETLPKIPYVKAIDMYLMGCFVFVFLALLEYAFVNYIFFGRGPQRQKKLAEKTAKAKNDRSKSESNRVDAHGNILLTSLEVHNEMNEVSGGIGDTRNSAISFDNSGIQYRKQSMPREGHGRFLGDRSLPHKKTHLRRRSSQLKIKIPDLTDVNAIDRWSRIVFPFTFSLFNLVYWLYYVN
T1 sequence (P18507 40-475): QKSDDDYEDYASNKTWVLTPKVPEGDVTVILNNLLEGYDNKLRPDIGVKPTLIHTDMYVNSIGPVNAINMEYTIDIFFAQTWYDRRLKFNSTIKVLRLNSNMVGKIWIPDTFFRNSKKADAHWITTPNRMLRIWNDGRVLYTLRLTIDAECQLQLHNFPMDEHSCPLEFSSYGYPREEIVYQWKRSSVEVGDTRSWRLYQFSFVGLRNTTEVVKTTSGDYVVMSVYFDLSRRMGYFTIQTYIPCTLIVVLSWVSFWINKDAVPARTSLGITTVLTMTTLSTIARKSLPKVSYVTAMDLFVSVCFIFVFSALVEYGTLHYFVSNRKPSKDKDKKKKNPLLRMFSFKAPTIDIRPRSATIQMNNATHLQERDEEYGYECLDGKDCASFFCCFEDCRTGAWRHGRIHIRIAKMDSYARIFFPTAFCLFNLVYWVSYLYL
Chain of human GABAA α5β3γ2 (P31644 32-462): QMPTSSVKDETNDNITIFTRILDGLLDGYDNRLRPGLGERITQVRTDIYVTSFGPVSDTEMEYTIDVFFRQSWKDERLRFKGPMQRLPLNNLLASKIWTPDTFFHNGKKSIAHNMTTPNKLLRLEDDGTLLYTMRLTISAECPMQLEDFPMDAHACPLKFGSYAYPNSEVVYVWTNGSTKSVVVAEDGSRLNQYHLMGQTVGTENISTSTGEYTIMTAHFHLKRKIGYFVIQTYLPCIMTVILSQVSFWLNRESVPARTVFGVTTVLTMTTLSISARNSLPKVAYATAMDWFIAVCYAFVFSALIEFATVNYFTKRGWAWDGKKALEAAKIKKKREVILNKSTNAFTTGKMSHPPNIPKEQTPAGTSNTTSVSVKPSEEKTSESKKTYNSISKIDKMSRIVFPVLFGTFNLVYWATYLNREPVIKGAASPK
Chain of human GABAA α5β3γ2 (P28472 26-473 partner): as the sequence (P28472 26-473 partner) above
Chain of human GABAA α5β3γ2 (P18507 40-475): as the sequence (P18507 40-475) above

`[3H]C([3H])([3H])N1Cc2c(C(=O)OCC)ncn2-c2ccc(N=[N+]=[N-])cc2C1=O` [Ro 15-4513, ethyl 8-azido-6-oxo-5-(tritritiomethyl)-4H-imidazo[1,5-a][1,4]benzodiazepine-3-carboxylate]: in [1], the equilibrium dissociation constant (Kd) is 1.83 nM.

With `Cc1cc(-c2nncc3c(C(C)(C)C)c(OCc4ncnn4C)nn23)no1` [MRK-016, 3-tert-butyl-7-(5-methylisoxazol-3-yl)-2-(1-methyl-1H-1,2,4-triazol-5-ylmethoxy)-pyrazolo[1,5-d]-[1,2,4]triazine], the Ki in data set [2] (ref Atack et al. 2009) is 1.4 nM; in data set [3] (ref Atack et al. 2009), 0.9 nM; in [5] (ref Atack et al. 2009), 0.8 nM. The “reason why development was stopped” value in data set [4] is on record as “poor tolerability in healthy elderly humans”.

As to `Cc1cc(-c2nnc3c4ccccc4c(OCc4cn(C)nn4)nn23)no1` [α5IA], the inhibitory constant (Ki) is 0.7 nM in [2] (ref Dawson et al., 2006); 0.6 nM in [3] (ref Dawson et al., 2006); 0.6 nM in data set [7] (ref Dawson et al., 2006); 0.9 nM in data set [5] (ref Dawson et al., 2006). For the same compound, in [6], the “reason why development was stopped” value is “renal toxicity in preclinical species”. The “alcohol-induced impairment in word list recall” value in [8] is on record as “reversed an alcohol-induced impairment in word list recall”.

Take `FC(F)c1ncn2c1Cn1ncnc1-c1cc(Br)ccc1-2` [RO4938581]: the inhibition constant (Ki) in data set [2] (ref Ballard et al., 2008) was 4.6 nM; in data set [3] (ref Ballard et al., 2008), 185 nM; in data set [7] (ref Ballard et al., 2008), 80 nM; in data set [5] (ref Ballard et al., 2008), 174 nM. Also, the “enhancement of cognitive performance” value in data set [9] was “have not shown enhancement of cognitive performance”. In data set [10], the CYP1A2 autoinduction result is recorded as “strong CYP1A2 autoinduction properties”. The “binding sites of [3H]-Ro 15-4513 in the hippocampus occupied by the compound” value in [11] was “up to 90%”.

For the compound `Cc1ncc2n1-c1ccc(Cl)cc1C(c1ccccc1F)=NC2` [midazolam, reference compound], the “change of relative EEG power in the beta band” value in data set [12] stood at 32.2 ± 7.04%. In addition, the “increase of the GABA-induced current” value in data set [13] was 145 ± 9%.
